{
  "source": "patent US8361964B2",
  "about": "“Growth hormone releasing factor (GRF) analogs and uses thereof” (Theratechnologies Inc., priority 2011, dated 2013)",
  "key": {"[1]": {"tested_on": "Growth Hormone secretion", "assay": "Growth Hormone secretion in female rats after subcutaneous GRF analog", "type": "in vivo", "settings": "female Sprague-Dawley rats; 10 μg/rat subcutaneous; plasma 0-60 minutes", "summary_of_the_method": "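Female Sprague-Dawley rats (250–300 g), isoflurane-anaesthetised with carotid cannula, got GRF analog 10 μg/rat s.c. in 20 mM AcONa + 5% mannitol, pH 5. Blood was drawn at 0, 10, 20, 30, 45 and 60 min (4–8 rats per group per time point). Plasma GH was measured by rat/mouse GH ELISA on 20-fold diluted samples.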"}, "[2]": {"tested_on": "Growth Hormone secretion", "assay": "Growth Hormone secretion in female mice after subcutaneous GRF analog", "type": "in vivo", "settings": "female CD-1 mice; 10 μg/mouse subcutaneous; plasma 10 minutes after injection", "summary_of_the_method": "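Female CD-1 mice (20–25 g) got a subcutaneous dose of 10 μg/mouse GRF analog in 20 mM sodium acetate + 5% mannitol, pH 5. Plasma was taken by cardiac puncture 10 min after dosing into K3EDTA. GH was measured by rat/mouse GH ELISA on 20-fold diluted plasma.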"}, "[3]": {"biological_target": "T1, human GRF receptor (Homo sapiens, UniProt Q02643)", "T1 construct": "expressed in transfected cells; host or cells: baby hamster kidney (BHK) cells, stably transfected", "T1 sequence (Q02643 23-423)": "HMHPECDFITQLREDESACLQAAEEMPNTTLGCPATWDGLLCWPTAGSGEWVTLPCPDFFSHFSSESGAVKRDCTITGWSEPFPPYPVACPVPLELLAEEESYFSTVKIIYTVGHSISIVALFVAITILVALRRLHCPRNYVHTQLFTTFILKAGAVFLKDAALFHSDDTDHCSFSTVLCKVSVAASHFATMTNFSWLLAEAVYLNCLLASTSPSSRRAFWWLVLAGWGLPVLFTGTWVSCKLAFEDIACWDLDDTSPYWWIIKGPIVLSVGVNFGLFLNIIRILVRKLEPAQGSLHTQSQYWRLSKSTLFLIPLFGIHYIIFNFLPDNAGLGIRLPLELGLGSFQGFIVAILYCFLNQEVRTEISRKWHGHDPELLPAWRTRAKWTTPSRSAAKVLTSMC", "assay": "Alkaline phosphatase (AP) assay, GHRHr agonist activity", "type": "cell-based", "settings": "BHK cells stably expressing human GRF receptor and alkaline phosphatase reporter gene; 24 hrs stimulation; read-out: EC50 (nM) as assessed by alkaline phosphatase (AP) induction", "experimental": "The activity of representative GRF peptides was tested on baby hamster kidney (BHK) cells stably transfected to express the human GRF receptor and an alkaline phosphatase reporter gene. Cells were cultured 24 hours before stimulation, in 96-well plates, at a concentration of 0.5×10^5 cells/well. Before stimulation, cells were washed twice with DPBS and incubated 10-30 min in assay buffer (DMEM without phenol red supplemented with 20 mM HEPES and 1% heat inactivated fetal bovine serum (FBS). The dose response curve of the GRF peptides was done for 24 hrs with concentrations of peptides from 10^−5 M to 10^−11 M. Supernatant was collected and analysis of alkaline phosphatase levels was performed using the Alkaline Phosphatase detection kit from Applied Biosystems.\nThe in vitro activity of representative GRF analogs was tested on baby hamster kidney (BHK) cells expressing human GHRHr."}, "[4]": {"settings": "following intravenous injection in humans; cited from earlier work"}},
  "note": "Where a SMILES comes first, the peptide text is derived from it.",
  "data": [
    {"compound": "CC[C@H](C)[C@H](NC(=O)[C@H](C)NC(=O)[C@H](CC(=O)O)NC(=O)[C@@H](C)NC(=O)[C@@H](N)Cc1ccc(O)cc1)C(=O)N[C@@H](Cc1ccccc1)C(=O)N[C@H](C(=O)N[C@@H](CC(=O)O)C(=O)N[C@@H](CO)C(=O)N[C@@H](Cc1ccc(O)cc1)C(=O)N[C@@H](CCCNC(=N)N)C(=O)N[C@@H](CCCCN)C(=O)N[C@H](C(=O)N[C@@H](CC(C)C)C(=O)N[C@@H](C)C(=O)N[C@@H](CCC(N)=O)C(=O)N[C@@H](CC(C)C)C(=O)N[C@@H](CCCCN)C(=O)N[C@@H](C)C(=O)N[C@@H](CCCNC(=N)N)C(=O)N[C@@H](CCC(N)=O)C(=O)N[C@@H](CC(=O)O)C(=O)N[C@H](C(=O)N[C@@H](CC(C)C)C(=O)N[C@@H](C)C(=O)N[C@@H](CCCNC(=N)N)C(=O)N[C@@H](C)C(=O)N[C@@H](C)C(=O)N[C@@H](CCCNC(=N)N)C(=O)N[C@@H](C)C(=O)N[C@@H](C)C(=O)N[C@@H](CCCNC(=N)N)C(N)=O)[C@@H](C)CC)C(C)C)[C@@H](C)O", "note": "[SEQ ID NO: 28, Y-a-DAIFTDSYRKVLAQLKARQDILARAARAAR-NH2] (HELM PEPTIDE1{Y.[dA].D.A.I.F.T.D.S.Y.R.K.V.L.A.Q.L.K.A.R.Q.D.I.L.A.R.A.A.R.A.A.R.[am]}$$$$V2.0)", "values": [
      {"measurement": "Mean AUC (GH Area Under the curve, GH concentration over time)", "setting": "[1]", "result": 17633},
      {"measurement": "Mean Cmax (ng/ml) of Growth Hormone secretion", "setting": "[1]", "result": 806.2, "unit": "ng/mL"},
      {"measurement": "GH levels 10 min", "setting": "[2]", "result": 449.7, "unit": "ng/mL"},
      {"measurement": "EC50", "setting": "[3]", "result": 0.11, "unit": "nM"}
    ]},
    {"compound": "CC/C=C/CC(=O)N[C@@H](Cc1ccc(O)cc1)C(=O)N[C@@H](C)C(=O)N[C@@H](CC(=O)O)C(=O)N[C@@H](C)C(=O)N[C@H](C(=O)N[C@@H](Cc1ccccc1)C(=O)N[C@H](C(=O)N[C@@H](CC(=O)O)C(=O)N[C@@H](CO)C(=O)N[C@@H](Cc1ccc(O)cc1)C(=O)N[C@@H](CCCNC(=N)N)C(=O)N[C@@H](CCCCN)C(=O)N[C@H](C(=O)N[C@@H](CC(C)C)C(=O)N[C@@H](C)C(=O)N[C@@H](CCC(N)=O)C(=O)N[C@@H](CC(C)C)C(=O)N[C@@H](CCCCN)C(=O)N[C@@H](C)C(=O)N[C@@H](CCCNC(=N)N)C(=O)N[C@@H](CCC(N)=O)C(=O)N[C@@H](CC(=O)O)C(=O)N[C@@H](CC(C)C)C(=O)N[C@@H](CC(C)C)C(=O)N[C@@H](C)C(=O)N[C@@H](CCCNC(=N)N)C(=O)N[C@@H](C)C(=O)N[C@@H](C)C(=O)N[C@@H](CCCNC(=N)N)C(=O)N[C@@H](C)C(=O)N[C@@H](C)C(=O)N[C@@H](CCCNC(=N)N)C(N)=O)C(C)C)[C@@H](C)O)[C@@H](C)CC", "note": "[SEQ ID NO: 32, Trans-3-hexenoyl-YADAIFTDSYRKVLAQLKARQDLLARAARAAR-NH2] (HELM PEPTIDE1{[CC/C=C/CC(=O)[*:2]].Y.A.D.A.I.F.T.D.S.Y.R.K.V.L.A.Q.L.K.A.R.Q.D.L.L.A.R.A.A.R.A.A.R.[am]}$$$$V2.0)", "values": [
      {"measurement": "Mean AUC (GH Area Under the curve, GH concentration over time)", "setting": "[1]", "result": 10500},
      {"measurement": "Mean Cmax (ng/ml) of Growth Hormone secretion", "setting": "[1]", "result": 514.8, "unit": "ng/mL"},
      {"measurement": "GH levels 10 min", "setting": "[2]", "result": 401.6, "unit": "ng/mL"},
      {"measurement": "EC50", "setting": "[3]", "result": 0.11, "unit": "nM"}
    ]},
    {"compound": "CC[C@H](C)[C@H](NC(=O)[C@H](C)NC(=O)[C@H](CC(=O)O)NC(=O)CNC(=O)[C@@H](N)Cc1ccc(O)cc1)C(=O)N[C@@H](Cc1ccccc1)C(=O)N[C@H](C(=O)N[C@@H](CC(=O)O)C(=O)N[C@@H](CO)C(=O)N[C@@H](Cc1ccc(O)cc1)C(=O)N[C@@H](CCCNC(=N)N)C(=O)N[C@@H](CCCCN)C(=O)N[C@H](C(=O)N[C@@H](CC(C)C)C(=O)N[C@@H](C)C(=O)N[C@@H](CCC(N)=O)C(=O)N[C@@H](CC(C)C)C(=O)N[C@@H](CCCCN)C(=O)N[C@@H](C)C(=O)N[C@@H](CCCNC(=N)N)C(=O)N[C@@H](CCC(N)=O)C(=O)N[C@@H](CC(=O)O)C(=O)N[C@H](C(=O)N[C@@H](CC(C)C)C(=O)N[C@@H](C)C(=O)N[C@@H](CCCNC(=N)N)C(=O)N[C@@H](C)C(=O)N[C@@H](C)C(=O)N[C@@H](CCCNC(=N)N)C(=O)N[C@@H](C)C(=O)N[C@@H](C)C(=O)N[C@@H](CCCNC(=N)N)C(=O)N[C@@H](CCO)C(N)=O)[C@@H](C)CC)C(C)C)[C@@H](C)O", "note": "[SEQ ID NO: 36, YGDAIFTDSYRKVLAQLKARQDILARAARAAR-HoSer-NH2] (HELM PEPTIDE1{Y.G.D.A.I.F.T.D.S.Y.R.K.V.L.A.Q.L.K.A.R.Q.D.I.L.A.R.A.A.R.A.A.R.[O=C([C@H](CCO)N[*:1])[*:2]].[am]}$$$$V2.0)", "values": [
      {"measurement": "Mean AUC (GH Area Under the curve, GH concentration over time)", "setting": "[1]", "result": 6211},
      {"measurement": "Mean Cmax (ng/ml) of Growth Hormone secretion", "setting": "[1]", "result": 373.5, "unit": "ng/mL"},
      {"measurement": "EC50", "setting": "[3]", "result": 0.2, "unit": "nM"}
    ]},
    {"compound": "CC[C@H](C)[C@H](NC(=O)[C@H](C)NC(=O)[C@H](CC(=O)O)NC(=O)[C@@H](C)NC(=O)[C@@H](N)Cc1ccc(O)cc1)C(=O)N[C@@H](Cc1ccccc1)C(=O)N[C@H](C(=O)N[C@@H](CC(=O)O)C(=O)N[C@@H](CO)C(=O)N[C@@H](Cc1ccc(O)cc1)C(=O)N[C@@H](CCCNC(=N)N)C(=O)N[C@@H](CCCCN)C(=O)N[C@H](C(=O)N[C@@H](CC(C)C)C(=O)N[C@@H](C)C(=O)N[C@@H](CCC(N)=O)C(=O)N[C@@H](CC(C)C)C(=O)N[C@@H](CCCCN)C(=O)N[C@@H](C)C(=O)N[C@@H](CCCNC(=N)N)C(=O)N[C@@H](CCC(N)=O)C(=O)N[C@@H](CC(=O)O)C(=O)N[C@H](C(=O)N[C@@H](CC(C)C)C(=O)N[C@@H](C)C(=O)N[C@@H](CCCNC(=N)N)C(=O)N[C@@H](C)C(=O)N[C@@H](C)C(=O)N[C@@H](CCCNC(=N)N)C(=O)N[C@@H](C)C(=O)N[C@@H](C)C(=O)N[C@@H](CCCNC(=N)N)C(=O)N[C@@H](CCO)C(N)=O)[C@@H](C)CC)C(C)C)[C@@H](C)O", "note": "[SEQ ID NO: 37, Y-a-DAIFTDSYRKVLAQLKARQDILARAARAAR-HoSer-NH2] (HELM PEPTIDE1{Y.[dA].D.A.I.F.T.D.S.Y.R.K.V.L.A.Q.L.K.A.R.Q.D.I.L.A.R.A.A.R.A.A.R.[O=C([C@H](CCO)N[*:1])[*:2]].[am]}$$$$V2.0)", "values": [
      {"measurement": "Mean AUC (GH Area Under the curve, GH concentration over time)", "setting": "[1]", "result": 14757},
      {"measurement": "Mean Cmax (ng/ml) of Growth Hormone secretion", "setting": "[1]", "result": 594.6, "unit": "ng/mL"},
      {"measurement": "EC50", "setting": "[3]", "result": 0.2, "unit": "nM"}
    ]},
    {"compound": "Ac-YADAIFTDSYRKVLAQLSARKLLQDILSR-NH2 [SEQ ID NO: 43, Ac-YADAIFTDSYRKVLAQLSARKLLQDILSR-NH2, reference compound]", "values": [
      {"measurement": "Mean AUC (GH Area Under the curve, GH concentration over time)", "setting": "[1]", "result": 2128},
      {"measurement": "Mean Cmax (ng/ml) of Growth Hormone secretion", "setting": "[1]", "result": 83.6, "unit": "ng/mL"},
      {"measurement": "GH levels 10 min", "setting": "[2]", "result": 277, "unit": "ng/mL"},
      {"measurement": "EC50", "setting": "[3]", "result": 0.25, "unit": "nM"}
    ]},
    {"compound": "H-YGDAIFTDSYRKVLAQLKARQDILARAARAAR-NH2 [SEQ ID NO: 34, YGDAIFTDSYRKVLAQLKARQDILARAARAAR-NH2]", "values": [
      {"measurement": "Mean AUC (GH Area Under the curve, GH concentration over time)", "setting": "[1]", "result": 11046},
      {"measurement": "Mean Cmax (ng/ml) of Growth Hormone secretion", "setting": "[1]", "result": 539.7, "unit": "ng/mL"},
      {"measurement": "EC50", "setting": "[3]", "result": 0.2, "unit": "nM"}
    ]},
    {"compound": "H-YSDAIFTDSYRKVLAQLKARQDILARAARAAR-NH2 [SEQ ID NO: 33, YSDAIFTDSYRKVLAQLKARQDILARAARAAR-NH2]", "values": [
      {"measurement": "Mean AUC (GH Area Under the curve, GH concentration over time)", "setting": "[1]", "result": 12467},
      {"measurement": "Mean Cmax (ng/ml) of Growth Hormone secretion", "setting": "[1]", "result": 499.0, "unit": "ng/mL"},
      {"measurement": "EC50", "setting": "[3]", "result": 0.25, "unit": "nM"}
    ]},
    {"compound": "Tyr-Ala-Asp-Ala-Ile-Phe-Thr-Asn-Ser-Tyr-Arg-Lys-Val-Leu-Gly-Gln-Leu-Ser-Ala-Arg-Lys-Leu-Leu-Gln-Asp-Ile-Met-Ser-Arg [hGRF(1-29)]", "values": [
      {"measurement": "half-life", "setting": "[4]", "result": "approximately 12 min"}
    ]}
  ]
}
